Measured values: patent publication US4880924A, “Novel compounds and use thereof in selective cyclization process” (Nelson Research & Development Co., priority 1986, dated 1989)

Columns and labels:
GABA receptor sites = assay: displacement of 3H-muscimol from specific GABA receptor sites in mouse brain membranes; details: read-out: Concentration of the test compound showing 50% inhibition of labelled ligand binding
Protocol: (§1) The novel compound prepared above was investigated for its potency in interaction with GABA receptor sites in BRAIN. As described in detail in Roberts et. al. J. Neuroscience, Vol. 1, No. 2, pp. 132-140 (1981), two experiments were performed: (1) the potency of the compound in displacing ^3 H-muscimol, a known GABA agonist, from specific GABA receptor sites in mouse brain membranes, and (2) the potency in displacing ^3 H-GABA from sodium-dependent GABA binding sites in mouse brain membranes, which reflects potency for the GABA reuptake inactivation process. […] This reflects very good potency for the compound prepared in Example 4.

[1] = molecular target: T1, sodium-dependent GABA binding sites (Mus musculus); assay: displacement of 3H-GABA from sodium-dependent GABA binding sites in mouse brain membranes (GABA reuptake inactivation process); details: read-out: Concentration of the test compound showing 50% inhibition of labelled ligand binding
T1 construct: from tissue; host or cells: mouse brain membranes
Protocol: as §1

## NCCC(C(=O)O)C1COC(=O)C1 (stereo not drawn) [Example 4, α-(2-aminoethyl)tetrahydro-5-oxo-3-furan acetic acid]
GABA receptor sites
  IC50: 2.1 µM
[1]
  IC50: 25 µM
